Measured values taken from patent US9611278B2 (Merck Sharp & Dohme Corp., priority 2013, dated 2017).

Target: T1, sGC α1/β1 heterodimer stably expressed in CHO-K1 cells (CHO-K1/sGC) (Homo sapiens, UniProt Q02108+Q02153)
T1 construct: expressed in transfected cells
T1 sequence (Q02108 1-690): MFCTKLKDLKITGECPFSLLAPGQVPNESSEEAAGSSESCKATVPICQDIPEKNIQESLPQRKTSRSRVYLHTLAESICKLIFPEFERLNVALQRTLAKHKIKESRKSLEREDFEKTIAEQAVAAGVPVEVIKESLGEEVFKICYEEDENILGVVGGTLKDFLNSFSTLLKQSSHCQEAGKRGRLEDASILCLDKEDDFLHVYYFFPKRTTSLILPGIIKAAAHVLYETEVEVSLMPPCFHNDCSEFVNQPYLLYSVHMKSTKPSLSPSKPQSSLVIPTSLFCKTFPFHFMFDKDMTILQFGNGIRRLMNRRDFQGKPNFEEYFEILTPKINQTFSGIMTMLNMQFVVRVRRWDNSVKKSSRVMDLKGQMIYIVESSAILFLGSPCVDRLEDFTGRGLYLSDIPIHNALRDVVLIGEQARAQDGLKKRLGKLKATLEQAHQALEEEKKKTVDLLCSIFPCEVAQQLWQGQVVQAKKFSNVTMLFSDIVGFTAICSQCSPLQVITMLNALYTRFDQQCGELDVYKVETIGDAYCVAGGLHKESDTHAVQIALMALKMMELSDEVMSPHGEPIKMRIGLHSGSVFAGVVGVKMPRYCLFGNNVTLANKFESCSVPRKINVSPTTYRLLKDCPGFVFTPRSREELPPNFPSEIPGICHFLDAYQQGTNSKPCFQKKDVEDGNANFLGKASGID
T1 sequence (Q02153 1-619): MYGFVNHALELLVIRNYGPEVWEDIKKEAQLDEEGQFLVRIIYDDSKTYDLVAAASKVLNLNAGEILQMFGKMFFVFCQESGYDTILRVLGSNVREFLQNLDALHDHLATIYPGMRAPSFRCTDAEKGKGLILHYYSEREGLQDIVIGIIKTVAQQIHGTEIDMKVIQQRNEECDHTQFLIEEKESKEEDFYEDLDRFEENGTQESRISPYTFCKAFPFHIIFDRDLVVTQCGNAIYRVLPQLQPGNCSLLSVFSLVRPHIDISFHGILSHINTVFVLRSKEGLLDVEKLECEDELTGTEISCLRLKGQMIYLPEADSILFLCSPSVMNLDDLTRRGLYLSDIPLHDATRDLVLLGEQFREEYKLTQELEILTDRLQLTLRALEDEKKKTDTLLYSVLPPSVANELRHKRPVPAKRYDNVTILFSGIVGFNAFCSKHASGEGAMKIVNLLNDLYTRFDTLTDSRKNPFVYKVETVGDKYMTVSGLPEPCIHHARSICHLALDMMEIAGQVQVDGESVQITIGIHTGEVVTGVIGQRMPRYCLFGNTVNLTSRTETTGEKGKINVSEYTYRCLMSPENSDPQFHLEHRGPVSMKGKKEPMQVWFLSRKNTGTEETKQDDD
Test: Cell-based sGC Functional Assay (CASA Assay)
Conditions: for Emax: CHO-K1, activation as percentage of maximum cGMP production of Compound A (set to 100%), read-out: % Act.; for EC50: inflection point of cGMP generation in CHO-K1/sGC cells, 4P fit, 1 hr at 37° C., read-out: IP
Text: sGC is a heme-containing enzyme that converts GTP to secondary messenger cGMP. Increases in cGMP levels affect several physiological processes including vasorelaxation through multiple downstream pathways. […] Heme-dependent activators (HDAs) preferentially activate sGC containing a ferrous heme group. To determine the effect of sGC activators on enzyme activity, the CASA assay was developed to monitor the generation of cGMP in a cell line that stably expresses the heterodimeric sGC protein.
A CHO-K1 cell line stably expressing the sGC α1/β1 heterodimer was generated using a standard transfection protocol. CHO-K1 cells were transfected with plasmids pIREShyghsGCα1 and pIRESneo-hsGCβ1 simultaneously using FUGENE reagent. Clones that stably express both subunits were selected with hygromycin and neomycin for ˜2 weeks. Clone #7 was chosen for the assay and was designated CHO-K1/sGC. CHO-K1/sGC cells were maintained in F-K12 medium containing 10% heat-inactivated Fetal Bovine Serum (FBS), 100 μg/mL penicillin/streptomycin, 0.5 mg/mL hygromycin and 0.25 mg/mL G418. The cells were then cryopreserved in LN2. On the day of the assay, cells thawed and resuspended in EBSS Assay Buffer (EAB, Sigma, E3024) supplemented with 5 mM MgCl2, 10 mM HEPES (4-(2-hydroxyethyl)piperazine-1-ethanesulfonic acid) and 0.05% BSA (bovine serum albumin) and cell density was then adjusted to 4×10^5/mL with EAB. IBMX (3-isobutyl-1-methylxanthin, 0.5 mM) was added to inhibit degradation of cGMP. Compounds were diluted from DMSO stock solutions and added to the assay at a final DMSO concentration of 2.5%. Cells were incubated with compounds in the presence and absence of 1 μM of Diethylenetriamine/nitric oxide adduct (DETA-NO; Sigma, 17018) for 1 hr at 37° C. At the end of the incubation period, the reaction was terminated and the cells were lysed with the detection reagents from Cisbio Kits. The level of intracellular cGMP was determined using an HTRF-based assay kit (CisBio, 62GM2PEC), which detects the displacement of a fluorescence labeled cGMP from its specific antibody. The cGMP produced by test compounds was directly compared to the maximum cGMP production (this value was set to equal 100% activation.) of the published sGC-HDA Compound A:
(Example 1 in WO 2010/065275, published Jun. 10, 2010). The test compounds' activity were then expressed as a percentage of Compound A, the standard in every experiment. This percent activation was calculated either in the presence or absence of DETA-NO which was then plotted. IP and maximum fold induction was derived using ADA analysis software for 4P fit.

SMILES	Emax [%]	EC50 [nM]
C=CCn1cc(C2(C)C(=O)Nc3nc(-c4nc(CCC(F)(F)C(F)(F)F)nc5c4cnn5C)nc(N)c32)nn1 (single isomer, unassigned) [Example 75, 5-(1-allyl-1H-1,2,3-triazol-4-yl)-4-amino-5-methyl-2-(1-methyl-6-(3,3,4,4,4-pentafluorobutyl)-1H-pyrazolo[3,4-d]pyrimidin-4-yl)-5,7-dihydro-6H-pyrrolo[2,3-d]pyrimidin-6-one]	139	175
[2H]C([2H])([2H])n1cc(C2(C)C(=O)Nc3nc(-c4nc(CCC(F)(F)C(F)(F)F)nc5c4cnn5C([2H])([2H])[2H])nc(N)c32)nn1 (single isomer, unassigned) [Example 76, 4-Amino-5-methyl-5-(1-(methyl-d3)-1H-1,2,3-triazol-4-yl)-2-(1-(methyl-d3)-6-(3,3,4,4,4-pentafluorobutyl)-1H-pyrazolo[3,4-d]pyrimidin-4-yl)-5,7-dihydro-6H-pyrrolo[2,3-d]pyrimidin-6-one]	148	168
[2H]C([2H])([2H])n1cc(C2(C)C(=O)Nc3nc(-c4nc(CCC(F)(F)C(F)(F)F)nc5c4cnn5C)nc(N)c32)nn1 (single isomer, unassigned) [Example 77, 4-Amino-5-methyl-2-(1-methyl-6-(3,3,4,4,4-pentafluorobutyl)-1H-pyrazolo[3,4-d]pyrimidin-4-yl)-5-(1-(methyl-d3)-1H-1,2,3-triazol-4-yl)-5,7-dihydro-6H-pyrrolo[2,3-d]pyrimidin-6-one]	157	168
CC(CC(F)(F)F)c1nc(-c2nc(N)c3c(n2)NC(=O)C3(C)c2ccc(F)cn2)c2cnn(C)c2n1 (stereo not shown) [Example 6, 4-Amino-5-(5-fluoropyridin-2-yl)-5-methyl-2-(1-methyl-6-(4,4,4-trifluorobutan-2-yl)-1H-pyrazolo[3,4-d]pyrimidin-4-yl)-5,7-dihydro-6H-pyrrolo[2,3-d]pyrimidin-6-one]	137	604
[2H]C([2H])([2H])n1ncc2c(-c3nc(N)c4c(n3)NC(=O)C4(C)c3ccccn3)nc(CCC(F)(F)C(F)(F)F)nc21 (stereo not shown) [Example 7, 4-Amino-5-methyl-2-(1-(methyl-d3)-6-(3,3,4,4,4-pentafluorobutyl)-1H-pyrazolo[3,4-d]pyrimidin-4-yl)-5-(pyridin-2-yl)-5,7-dihydro-6H-pyrrolo[2,3-d]pyrimidin-6-one]	147	212

Molecules with a lower EC50, results first:

Emax [%]	EC50 [nM]	SMILES
120	78	Cn1ncc2c(-c3nc(N)c4c(n3)NC(=O)C4(C)c3cn(C4CCC4)nn3)nc(CCC(F)(F)C(F)(F)F)nc21 (single isomer, unassigned) [Example 74, 4-Amino-5-(1-cyclobutyl-1H-1,2,3-triazol-4-yl)-5-methyl-2-(1-methyl-6-(3,3,4,4,4-pentafluorobutyl)-1H-pyrazolo[3,4-d]pyrimidin-4-yl)-5,7-dihydro-6H-pyrrolo[2,3-d]pyrimidin-6-one]
135	72	[2H]C([2H])([2H])n1ncc2c(-c3nc(N)c4c(n3)NC(=O)C4(C)c3ccc(F)cn3)nc(CCC(F)(F)C(F)(F)F)nc21 (stereo not shown) [Example 2, 4-Amino-5-(5-fluoropyridin-2-yl)-5-methyl-2-(1-(methyl-d3)-6-(3,3,4,4,4-pentafluorobutyl)-1H-pyrazolo[3,4-d]pyrimidin-4-yl)-5H-pyrrolo[2,3-d]pyrimidin-6(7H)-one]
88	10	Cc1noc(C2(C)C(=O)Nc3nc(-c4nc(Cc5cccc(F)c5F)nc5c4cnn5C)nc(N)c32)n1 (stereo not shown) [Example 5, 4-Amino-2-(6-(2,3-difluorobenzyl)-1-methyl-1H-pyrazolo[3,4-d]pyrimidin-4-yl)-5-methyl-5-(3-methyl-1,2,4-oxadiazol-5-yl)-5,7-dihydro-6H-pyrrolo[2,3-d]pyrimidin-6-one]
